This is an account of results in article PMC12620416 (Molecular Plant Pathology, 2025).

Values after ≈ are worked out from the molar mass of the structure shown.

For assay [1], the system named is Xanthomonas oryzae pv. oryzae (Xoo) PXO99A. The assay is described as follows: microbe, parasite or virus in culture. Particulars: read-out: EC50 (mg/L).
The target in another assay is T1, ISXoo15 transposase (Xanthomonas oryzae, UniProt A0A0K0GFE1).
T1 construct: gene PXO_03433
Put plainly: biochemical.

T1 sequence (A0A0K0GFE1 1-315): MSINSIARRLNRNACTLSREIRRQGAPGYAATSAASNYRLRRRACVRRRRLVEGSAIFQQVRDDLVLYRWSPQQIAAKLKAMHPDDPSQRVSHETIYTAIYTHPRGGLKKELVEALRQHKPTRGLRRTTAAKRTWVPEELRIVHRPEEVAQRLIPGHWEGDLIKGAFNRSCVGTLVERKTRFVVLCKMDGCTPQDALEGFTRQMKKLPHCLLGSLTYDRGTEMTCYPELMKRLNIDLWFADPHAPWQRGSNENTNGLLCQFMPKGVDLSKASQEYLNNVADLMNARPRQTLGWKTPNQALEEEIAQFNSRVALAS

Consider `C=C[C@]1(C)C[C@@H](OC(=O)CSc2ncc(OC)c(OS(=O)(=O)CC)n2)[C@]2(C)[C@H](C)CC[C@]3(CCC(=O)[C@H]32)[C@@H](C)[C@@H]1O` [J1], for which the EC50 in assay [1] worked out at 0.41 ± 0.15 mg/L (≈ 0.671 µM). Turning to `C=C[C@]1(C)C[C@@H](OC(=O)CSc2ncc(OC)c(OS(=O)(=O)c3ccc(C)cc3)n2)[C@]2(C)[C@H](C)CC[C@]3(CCC(=O)[C@H]32)[C@@H](C)[C@@H]1O` [J2], in assay [1], the EC50 turned out to be 0.26 ± 0.17 mg/L (≈ 0.386 µM). Consider `C=C[C@]1(C)C[C@@H](OC(=O)CSc2ncc(OC)c(OS(=O)(=O)c3ccc(C(F)(F)F)cc3)n2)[C@]2(C)[C@H](C)CC[C@]3(CCC(=O)[C@H]32)[C@@H](C)[C@@H]1O` [J3], for which, in assay [1], the EC50 amounted to 0.81 ± 0.08 mg/L (≈ 1.11 µM). On the same count and under the same terms, with `C=C[C@]1(C)C[C@@H](OC(=O)CSc2ncc(OC)c(OS(=O)(=O)c3c(F)cccc3F)n2)[C@]2(C)[C@H](C)CC[C@]3(CCC(=O)[C@H]32)[C@@H](C)[C@@H]1O` [J4] the figure was 0.34 ± 0.04 mg/L (≈ 0.489 µM); with `C=C[C@]1(C)C[C@@H](OC(=O)CSc2ncc(OC)c(OS(=O)(=O)c3c(F)c(F)c(F)c(F)c3F)n2)[C@]2(C)[C@H](C)CC[C@]3(CCC(=O)[C@H]32)[C@@H](C)[C@@H]1O` [J5], 0.77 ± 0.56 mg/L (≈ 1.03 µM); with `C=C[C@]1(C)C[C@@H](OC(=O)CSc2ncc(OC)c(OS(=O)(=O)c3c(C)c(C)c(C)c(C)c3C)n2)[C@]2(C)[C@H](C)CC[C@]3(CCC(=O)[C@H]32)[C@@H](C)[C@@H]1O` [J6], 0.33 ± 0.09 mg/L (≈ 0.453 µM). For `C=C[C@]1(C)C[C@@H](OC(=O)CSc2ncc(OC)c(OS(=O)(=O)c3cccc(Br)c3)n2)[C@]2(C)[C@H](C)CC[C@]3(CCC(=O)[C@H]32)[C@@H](C)[C@@H]1O` [J7], the EC50 in assay [1] is 0.27 ± 0.11 mg/L (≈ 0.366 µM). On to `C=C[C@]1(C)C[C@@H](OC(=O)CSc2ncc(OC)c(O)n2)[C@]2(C)[C@H](C)CC[C@]3(CCC(=O)[C@H]32)[C@@H](C)[C@@H]1O` [J9], for which, in assay [1], the EC50 is 0.12 ± 0.02 mg/L (≈ 0.231 µM). In addition, on ISXoo15 transposase, the Kd came out at 187 nM. As for `C=C[C@]1(C)C[C@@H](OC(=O)CSc2ncc(OC)c(OS(=O)(=O)c3cccc(F)c3)n2)[C@]2(C)[C@H](C)CC[C@]3(CCC(=O)[C@H]32)[C@@H](C)[C@@H]1O` [J10], the EC50 in assay [1] stood at 0.2 ± 0.13 mg/L (≈ 0.295 µM). Turning to `C=C[C@]1(C)C[C@@H](OC(=O)CSc2ncc(OC)c(OS(=O)(=O)c3ccc(Br)cc3OC(F)(F)F)n2)[C@]2(C)[C@H](C)CC[C@]3(CCC(=O)[C@H]32)[C@@H](C)[C@@H]1O` [J11], the EC50 in assay [1] amounted to 0.39 ± 0.27 mg/L (≈ 0.475 µM).

`C=C[C@]1(C)C[C@@H](OC(=O)CSc2ncc(OC)c(OS(=O)(=O)c3cccc(Cl)c3F)n2)[C@]2(C)[C@H](C)CC[C@]3(CCC(=O)[C@H]32)[C@@H](C)[C@@H]1O` [J12]: the EC50 in assay [1] stood at 0.26 ± 0.12 mg/L (≈ 0.366 µM). The same measure, in the same setting: with `C=C[C@]1(C)C[C@@H](OC(=O)CSc2ncc(OC)c(OS(=O)(=O)c3cc(Br)c(F)cc3F)n2)[C@]2(C)[C@H](C)CC[C@]3(CCC(=O)[C@H]32)[C@@H](C)[C@@H]1O` [J13] the figure was 0.22 ± 0.05 mg/L (≈ 0.284 µM); with `C=C[C@]1(C)C[C@@H](OC(=O)CSc2ncc(OC)c(OS(=O)(=O)c3ccc(Cl)cc3Br)n2)[C@]2(C)[C@H](C)CC[C@]3(CCC(=O)[C@H]32)[C@@H](C)[C@@H]1O` [J14], 0.3 ± 0.02 mg/L (≈ 0.389 µM); with `C=C[C@]1(C)C[C@@H](OC(=O)CSc2ncc(OC)c(OS(=O)(=O)C3CC3)n2)[C@]2(C)[C@H](C)CC[C@]3(CCC(=O)[C@H]32)[C@@H](C)[C@@H]1O` [J15], 0.37 ± 0.09 mg/L (≈ 0.594 µM). With `C=C[C@]1(C)C[C@@H](OC(=O)CSc2ncc(OC)c(OS(=O)(=O)c3ccc(F)cc3)n2)[C@]2(C)[C@H](C)CC[C@]3(CCC(=O)[C@H]32)[C@@H](C)[C@@H]1O` [J16], the EC50 in assay [1] is 0.26 ± 0.03 mg/L (≈ 0.384 µM).

In the case of `C=C[C@]1(C)C[C@@H](OC(=O)CSc2ncc(OC)c(OS(=O)(=O)c3ccc(F)c(F)c3F)n2)[C@]2(C)[C@H](C)CC[C@]3(CCC(=O)[C@H]32)[C@@H](C)[C@@H]1O` [J17], the EC50 in assay [1] came out at 0.22 ± 0.09 mg/L (≈ 0.309 µM). As to `C=C[C@]1(C)C[C@@H](OC(=O)CSc2ncc(OC)c(OS(=O)(=O)c3ccc(C#N)cc3)n2)[C@]2(C)[C@H](C)CC[C@]3(CCC(=O)[C@H]32)[C@@H](C)[C@@H]1O` [J18], the EC50 in assay [1] turned out to be 0.29 ± 0.09 mg/L (≈ 0.424 µM). The same measure, in the same setting: with `C=C[C@]1(C)C[C@@H](OC(=O)CSc2ncc(OC)c(OS(=O)(=O)c3c(C)cc(C)cc3C)n2)[C@]2(C)[C@H](C)CC[C@]3(CCC(=O)[C@H]32)[C@@H](C)[C@@H]1O` [J19] the figure was 0.16 ± 0.06 mg/L (≈ 0.228 µM). In the case of `C=C[C@]1(C)C[C@@H](OC(=O)CSc2ncc(OC)c(OS(=O)(=O)c3c(C)c(C)cc(C)c3C)n2)[C@]2(C)[C@H](C)CC[C@]3(CCC(=O)[C@H]32)[C@@H](C)[C@@H]1O` [J20], the EC50 in assay [1] turned out to be 0.35 ± 0.06 mg/L (≈ 0.49 µM). As to `C=C[C@]1(C)C[C@@H](OC(=O)CSc2ncc(OC)c(OS(=O)(=O)CCCC)n2)[C@]2(C)[C@H](C)CC[C@]3(CCC(=O)[C@H]32)[C@@H](C)[C@@H]1O` [J21], the EC50 in assay [1] turned out to be 2.79 ± 0.39 mg/L (≈ 4.37 µM).

For `C=C[C@]1(C)C[C@@H](OC(=O)CSc2ncc(OC)c(OS(=O)(=O)c3ccc(Cl)cc3)n2)[C@]2(C)[C@H](C)CC[C@]3(CCC(=O)[C@H]32)[C@@H](C)[C@@H]1O` [J22], in assay [1], the EC50 worked out at 0.34 ± 0.17 mg/L (≈ 0.49 µM). Turning to `C=C[C@]1(C)C[C@@H](OC(=O)CSc2ncc(OC)c(OS(=O)(=O)c3ccc(CC)cc3)n2)[C@]2(C)[C@H](C)CC[C@]3(CCC(=O)[C@H]32)[C@@H](C)[C@@H]1O` [J23], the EC50 in assay [1] was 0.58 ± 0.07 mg/L (≈ 0.844 µM). For the compound `C=C[C@]1(C)C[C@@H](OC(=O)CSc2ncc(OC)c(OS(=O)(=O)c3ccc(OC(F)(F)F)cc3)n2)[C@]2(C)[C@H](C)CC[C@]3(CCC(=O)[C@H]32)[C@@H](C)[C@@H]1O` [J24], the EC50 in assay [1] stood at 0.26 ± 0.05 mg/L (≈ 0.35 µM).

A word on the Kd: it is the equilibrium constant for the complex coming apart. The low end stands for a tighter complex, the high end for a looser complex.
